From ChEMBL document CHEMBL1201862, “PubChem BioAssay data set” (2004) come the findings set out here.

Among the test systems are ACHN; BT-549; DU-145; HCT-116; HL-60; Hs-578T; K562; MDA-N; Malme-3M; NCI-H226; NCI-H460; OVCAR-3; SF-268; SF-295; SF-539; SK-MEL-2; UACC-257; UACC-62; CCRF-CEM.
Holding throughout (test): DTP human tumour cell line panel, 48 h

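Briefly, cells in 96-well plates were exposed to five compound concentrations for 48 h, and endpoints were estimated by linear interpolation. At the GI50, growth is halved.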 Active and inactive are the calls of the source. Rule as the data show it: active = GI50 up to about 1.1 µM and inactive = higher. Some results are limits rather than exact numbers.

Take `O=C1OC2(c3ccc(O)cc3Oc3cc(O)ccc32)c2c1c(-c1ccccc1)c(-c1ccccc1)c(-c1ccccc1)c2-c1ccccc1`: the GI50 (usually the concentration giving 50% growth inhibition) with ACHN is 19.9 µM (inactive); in the assay on BT-549 it was 23.6 µM (inactive); in the assay on DU-145, 17.2 µM (inactive); with HCT-116 it was 24.4 µM (inactive); in the assay with HL-60, 14.8 µM (inactive); with Hs-578T, 22 µM (inactive). Further, the GI50 with K562 was 29.6 µM (inactive); in the assay with MDA-N, 21.8 µM (inactive); with Malme-3M it was 23.5 µM (inactive); with NCI-H226 it was 46.3 µM (inactive); with NCI-H460 it was 17.7 µM (inactive); with OVCAR-3, 34.5 µM (inactive). Besides, the GI50 in the assay with SF-268 is 22.2 µM (inactive); in the assay with SF-295 it was 21.6 µM (inactive); in the assay on SF-539, 22.9 µM (inactive); in the assay on SK-MEL-2 it was 20 µM (inactive); in the assay with UACC-257 it was 27.7 µM (inactive); in the assay with UACC-62, 18.7 µM (inactive).
Regarding `CN(C)C(=O)O/N=C1/C(=C2/C(=O)Nc3ccccc32)Nc2ccccc21`, the GI50 in the assay on ACHN was 19.2 µM (inactive); in the assay on BT-549, 13.4 µM (inactive); in the assay on CCRF-CEM, > 100 µM (inactive); in the assay with DU-145 it was 8.83 µM (inactive); in the assay with HCT-116 it was 19.1 µM (inactive); with HL-60, > 100 µM (inactive). Moreover, the GI50 with Hs-578T is 9.35 µM (inactive); with K562, 27.7 µM (inactive); in the assay with MDA-N, 46.2 µM (inactive); in the assay with Malme-3M, 4.25 µM (inactive); with NCI-H460, 7.96 µM (inactive); with OVCAR-3 it was 8.99 µM (inactive). The GI50 is 6.68 µM (inactive) with SF-268; 19.1 µM (inactive) with SF-295; 9.77 µM (inactive) in the assay with SF-539; 8.53 µM (inactive) in the assay with SK-MEL-2; 27.2 µM (inactive) in the assay with UACC-257; 16.1 µM (inactive) in the assay with UACC-62.
For the compound `COc1ccccc1Cn1c2c(c3cc(O)ccc31)C(=O)c1ccccc1C2=O`, the GI50 in the assay on BT-549 is > 100 µM (inactive); in the assay on CCRF-CEM, 37.5 µM (inactive); in the assay on DU-145 it was 39.4 µM (inactive); in the assay on HCT-116, 23.8 µM (inactive); in the assay with HL-60, > 100 µM (inactive); with Hs-578T, 36.6 µM (inactive). Further, the GI50 with K562 was > 100 µM (inactive); in the assay on MDA-N, > 100 µM (inactive); with Malme-3M it was > 100 µM (inactive); with NCI-H226, 21.6 µM (inactive); with NCI-H460, 26.2 µM (inactive); in the assay with OVCAR-3 it was 28.9 µM (inactive). Moreover, the GI50 is 19.7 µM (inactive) in the assay with SF-268; 11.2 µM (inactive) with SF-295; 12.7 µM (inactive) with SF-539; 38.6 µM (inactive) in the assay on SK-MEL-2; > 100 µM (inactive) in the assay on UACC-257; 17 µM (inactive) with UACC-62.
With `COC(=O)[C@@H](N1C(=O)c2ccccc2C1=O)C1(C)CC(Cl)=NO1` (stereo not given in full), the GI50 is > 100 µM (inactive) in the assay with ACHN; 42.7 µM (inactive) in the assay on BT-549; > 100 µM (inactive) with CCRF-CEM; 44 µM (inactive) in the assay with DU-145; 75.5 µM (inactive) in the assay with HCT-116; 29.8 µM (inactive) in the assay on Hs-578T. For the same compound, the GI50 with K562 was > 100 µM (inactive); in the assay on MDA-N, > 100 µM (inactive); with Malme-3M, > 100 µM (inactive); in the assay on NCI-H226 it was 38.8 µM (inactive); in the assay with NCI-H460, > 100 µM (inactive); in the assay on OVCAR-3 it was > 100 µM (inactive). The GI50 with SF-268 was 29.3 µM (inactive); in the assay with SF-295, 28.1 µM (inactive); with SK-MEL-2, > 100 µM (inactive); in the assay on UACC-257 it was > 100 µM (inactive); with UACC-62 it was > 100 µM (inactive).
Take `c1ccc2c(CN3CCN(Cc4c[nH]c5ccccc45)CC3)c[nH]c2c1`: the GI50 in the assay with ACHN is 19.3 µM (inactive); in the assay on BT-549, 22 µM (inactive); in the assay with CCRF-CEM it was 39.9 µM (inactive); in the assay on DU-145 it was 18.3 µM (inactive); in the assay on HCT-116, 14.8 µM (inactive); with HL-60, 17.5 µM (inactive). Moreover, the GI50 in the assay with Hs-578T is 15.9 µM (inactive); with K562, 12.7 µM (inactive); in the assay with MDA-N, 14.9 µM (inactive); in the assay on Malme-3M it was 15.3 µM (inactive); in the assay on NCI-H226, 16.5 µM (inactive); in the assay with NCI-H460 it was 12.7 µM (inactive). Besides, the GI50 in the assay with OVCAR-3 is 13.1 µM (inactive); with SF-268 it was 17.4 µM (inactive); in the assay on SF-295, 16 µM (inactive); in the assay on SK-MEL-2, 16.7 µM (inactive); in the assay with UACC-257 it was 14.4 µM (inactive); in the assay on UACC-62, 16.3 µM (inactive).
As for `CCOC(=O)c1csc(-c2nc(CCNC(=O)c3ccccc3)sc2Cl)n1`, the GI50 in the assay with ACHN is > 100 µM (inactive); in the assay with BT-549 it was 32.7 µM (inactive); in the assay on CCRF-CEM it was 30.5 µM (inactive); in the assay with DU-145, > 100 µM (inactive); in the assay on HCT-116, 47 µM (inactive); in the assay on HL-60 it was 41.5 µM (inactive). Also, the GI50 was > 100 µM (inactive) in the assay on Hs-578T; 37.1 µM (inactive) with K562; > 100 µM (inactive) with MDA-N; > 100 µM (inactive) in the assay on Malme-3M; > 100 µM (inactive) in the assay with NCI-H226; 34.4 µM (inactive) with NCI-H460. In addition, the GI50 with OVCAR-3 was 45.8 µM (inactive); in the assay with SF-268, 60 µM (inactive); with SF-295, > 100 µM (inactive); with SF-539 it was > 100 µM (inactive); in the assay with UACC-257 it was > 100 µM (inactive); in the assay with UACC-62, 59.3 µM (inactive).
Turning to `CCN(CC)CCCNc1nncc2c(C)c3[nH]c4ccccc4c3cc12`, the 50% growth inhibitory concentration (GI50) in the assay with ACHN was 0.914 µM (active); with BT-549 it was 1.34 µM (inactive); in the assay with CCRF-CEM it was 0.02 µM (active); in the assay with DU-145 it was 0.706 µM (active); in the assay with HL-60 it was 0.267 µM (active); in the assay with Hs-578T it was 0.865 µM (active). The GI50 was 1.06 µM (active) in the assay on MDA-N; 1.04 µM (active) with Malme-3M; 0.255 µM (active) in the assay with NCI-H226; 0.281 µM (active) in the assay on NCI-H460; 1.03 µM (active) with OVCAR-3; 2.74 µM (inactive) with SF-295. Moreover, the GI50 with SF-539 was 1.12 µM (inactive); in the assay with SK-MEL-2, 2.22 µM (inactive); in the assay with UACC-257 it was 1.24 µM (inactive); in the assay with UACC-62, 0.637 µM (active).
For `COc1ccc(-c2nc3ccccc3c(=S)n2OC(C)=O)cc1`, the GI50 in the assay with ACHN is 2.99 µM (inactive); in the assay on BT-549 it was 8.57 µM (inactive); with CCRF-CEM, 1.5 µM (inactive); with DU-145, 5.11 µM (inactive); with HCT-116, 1.91 µM (inactive); in the assay on HL-60, 1.04 µM (active). The GI50 in the assay on Hs-578T was 12.2 µM (inactive); in the assay with K562, 0.836 µM (active); in the assay with MDA-N, 12 µM (inactive); in the assay with Malme-3M, 4.76 µM (inactive); with NCI-H226 it was 7.85 µM (inactive); in the assay on NCI-H460, 1.05 µM (active). Further, the GI50 with SF-268 is 2.99 µM (inactive); in the assay on SF-295 it was 2.25 µM (inactive); in the assay with SF-539, 4.89 µM (inactive); in the assay on SK-MEL-2, > 25 µM (inactive); in the assay on UACC-257, 13.1 µM (inactive); in the assay with UACC-62, 2.8 µM (inactive).
For the compound `CC1C2CC(CC(=O)N2)C1(C)C` (stereo not given), the GI50 in the assay with ACHN, in the assay with BT-549, in the assay on CCRF-CEM, in the assay with DU-145, with HCT-116 and in the assay on HL-60 was > 100 µM (inactive) in each case. In addition, the GI50 in the assay on Hs-578T, in the assay with K562, in the assay on MDA-N, in the assay with Malme-3M, in the assay on NCI-H226 and with NCI-H460 was > 100 µM (inactive) throughout. Moreover, the GI50 with OVCAR-3, with SF-268, in the assay on SF-295, in the assay with SF-539, in the assay with UACC-257 and in the assay on UACC-62 was > 100 µM (inactive) in each case.
On to `CC1=CC(=O)N(n2c(C)n[nH]c2=O)C1=O`, for which the GI50 with ACHN, with BT-549, in the assay with CCRF-CEM, with DU-145, in the assay with HCT-116 and in the assay on Hs-578T was > 100 µM (inactive) each time. Further, the GI50 with K562, in the assay with MDA-N, in the assay with Malme-3M, in the assay on NCI-H226, in the assay on NCI-H460 and in the assay on OVCAR-3 was > 100 µM (inactive) throughout. Also, the GI50 in the assay on SF-268, in the assay on SF-295, in the assay on SF-539, in the assay with SK-MEL-2, with UACC-257 and with UACC-62 was > 100 µM (inactive) throughout.
Take `Nc1cc2c(c3ccccc13)C(CCl)CN2C(=O)c1cc2cc(NC(=O)c3cc4ccccc4o3)ccc2[nH]1` (stereo not given): the concentration for 50% growth inhibition (GI50) with ACHN is 0.000492 µM (active); in the assay with BT-549, 0.00126 µM (active); in the assay on CCRF-CEM it was 0.00194 µM (active); in the assay with DU-145, 0.000679 µM (active); in the assay with HCT-116 it was 0.00254 µM (active); in the assay with HL-60, 0.000264 µM (active). The 50% growth inhibitory concentration (GI50) was 0.0169 µM (active) in the assay on Hs-578T; 0.00817 µM (active) in the assay with MDA-N; 0.00213 µM (active) in the assay on Malme-3M; 0.11 µM (active) in the assay with NCI-H226; 0.000308 µM (active) with NCI-H460; 0.00885 µM (active) with OVCAR-3. Further, the GI50 is 0.00195 µM (active) in the assay with SF-268; 0.11 µM (active) in the assay on SF-295; 0.11 µM (active) with SF-539; 0.00286 µM (active) with SK-MEL-2; 0.00627 µM (active) with UACC-257; 0.00304 µM (active) in the assay with UACC-62.
